Data as given in patent publication US6894062B1, “Quinoline derivatives” (Pfizer Inc., priority 2002, dated 2005).
Read-outs that look alike come from different tables or passages of the source.

Target: T1, Rat 5HT7 Receptors (Rattus norvegicus, UniProt P32305)
T1 construct: expressed in transfected cells; host or cells: HEK-293
Test: 3H-5-Carboxamidotryptamine (3H-5-CT) binding to rat 5HT7 receptors expressed in HEK-293 cells
Procedure: The affinities of the active compounds for 5HT7 receptors can be determined using standard radioligand binding assays as described in the literature. The 5HT7 affinity can be measured using the following procedure.
^3H-5-Carboxamidotryptamine (^3H-5-CT) Binding to Rat 5HT7 Receptors Expressed in HEK-293 Cells: […]
Nonspecific binding is determined using 1 uM 5-HT creatinine sulfate. […] Radioactivity is quantified by liquid scintillation counting using a BetaPlate counter (LKB).
The percent inhibition of specific binding is calculated for each concentration of test compound. […] Ki values are calculated according to Cheng & Prusoff: Ki=IC50/(1+(L/Kd)), where L is the concentration of the radioligand used in the experiment and the Kd value is the dissociation constant for the radioligand determined in separate saturation experiments. […]

T1 sequence (P32305 whole entry): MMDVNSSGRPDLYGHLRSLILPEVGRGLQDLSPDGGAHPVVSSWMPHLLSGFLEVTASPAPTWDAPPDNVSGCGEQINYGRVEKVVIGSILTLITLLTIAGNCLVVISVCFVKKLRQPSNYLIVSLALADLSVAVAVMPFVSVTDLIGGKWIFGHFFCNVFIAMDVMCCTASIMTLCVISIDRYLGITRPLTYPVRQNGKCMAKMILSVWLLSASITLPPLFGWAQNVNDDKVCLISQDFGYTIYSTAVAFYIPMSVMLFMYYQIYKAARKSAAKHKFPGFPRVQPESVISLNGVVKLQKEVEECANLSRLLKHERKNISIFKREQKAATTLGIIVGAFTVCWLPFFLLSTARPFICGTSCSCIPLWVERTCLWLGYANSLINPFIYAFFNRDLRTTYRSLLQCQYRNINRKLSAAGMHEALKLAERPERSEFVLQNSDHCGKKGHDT

SMILES | Ki [µM] | Ki (3H-5-CT 0.4 nM radioligand, HEK-293 cell membranes expressing rat 5HT7, Cheng & Prusoff, read-out: Ki) [µM]
Cc1cnc2c(C3CCCNC3)cccc2c1 (racemic) [Example 8, 3-Methyl-8-Piperidin-3-yl-Quinoline] | ~0.0076 | –
CCc1cnc2cc(C3CCCNC3)ccc2c1 (racemic) [Example 10, 3-Ethyl-7-Piperidin-3-yl-Quinoline] | – | ~0.5
